Assay results published in patent publication US20210254056A1, “IDENTIFICATION AND TARGETED MODULATION OF GENE SIGNALING NETWORKS” (CAMP4 THERAPEUTICS CORPORATION, priority 2017, published 2021).

System: hepatocytes
Test: RNA-seq of hepatocytes treated with Phase III failure compounds
Method: RNA-seq was performed to determine the effects of the compounds on hepatocytes.
Significance was determined by the criteria of FPKM≥0.5, a log 2(fold-change)≥1, and a […].

In the case of `COc1cc(Nc2ncc(F)c(Nc3ccc4c(n3)N(COP(=O)(O)O)C(=O)C(C)(C)O4)n2)cc(OC)c1OC` [fostamatinib], the “significant modulation of expression of disease genes” value (RNA-seq, q≤0.05, hepatocytes, genes in the value or listed in the block) is reported as “significantly (q≤0.05) modulate expression”, the “effect on disease gene expression” value (RNA-seq, hepatocytes) is reported as “effect on expression of too many disease genes” and the “RNA-seq results: A1BG expression” value (gene A1BG, hepatocytes) is reported as 0.01. The “RNA-seq results: AGTR1 expression” value (gene AGTR1, hepatocytes) was 0.25, the “RNA-seq results: AGXT expression” value (gene AGXT, hepatocytes) was 0.45 and the “RNA-seq results: AHI1 expression” value (gene AHI1, hepatocytes) was 0.39. The “RNA-seq results: AMPD3 expression” value (gene AMPD3, hepatocytes) was −0.90, the “RNA-seq results: AMT expression” value (gene AMT, hepatocytes) was −0.28 and the “RNA-seq results: ANGPTL3 expression” value (gene ANGPTL3, hepatocytes) was 0.24. For the same compound, the “RNA-seq results: ANKS4B expression” value (gene ANKS4B, hepatocytes) was 0.49, the “RNA-seq results: ANKS6 expression” value (gene ANKS6, hepatocytes) was 0.03 and the “RNA-seq results: ANPEP expression” value (gene ANPEP, hepatocytes) was 0.49. The “RNA-seq results: AOC2 expression” value (gene AOC2, hepatocytes) was 0.64, the “RNA-seq results: APOA2 expression” value (gene APOA2, hepatocytes) was −0.31 and the “RNA-seq results: APOA5 expression” value (gene APOA5, hepatocytes) was 0.97. For the same compound, the “RNA-seq results: APOB expression” value (gene APOB, hepatocytes) was 1.87, the “RNA-seq results: COG5 expression” value (gene COG5, hepatocytes) was −0.12 and the “RNA-seq results: COG6 expression” value (gene COG6, hepatocytes) was 0.18. For the same compound, the “RNA-seq results: COL1A1 expression” value (gene COL1A1, hepatocytes) was −0.09, the “RNA-seq results: COX6A1 expression” value (gene COX6A1, hepatocytes) was 0.29 and the “RNA-seq results: CP expression” value (gene CP, hepatocytes) was −0.16. For the same compound, the “RNA-seq results: CPS1 expression” value (gene CPS1, hepatocytes) was −0.56, the “RNA-seq results: CPT1A expression” value (gene CPT1A, hepatocytes) was −0.03 and the “RNA-seq results: CPT2 expression” value (gene CPT2, hepatocytes) was 0.28. For the same compound, the “RNA-seq results: CROT expression” value (gene CROT, hepatocytes) was 0.19, the “RNA-seq results: CSPP1 expression” value (gene CSPP1, hepatocytes) was −0.09 and the “RNA-seq results: CTC1 expression” value (gene CTC1, hepatocytes) was 0.04. The “RNA-seq results: CTDSP2 expression” value (gene CTDSP2, hepatocytes) was −0.06, the “RNA-seq results: CTH expression” value (gene CTH, hepatocytes) was 0.15 and the “RNA-seq results: CTNS expression” value (gene CTNS, hepatocytes) was 0.1. For the same compound, the “RNA-seq results: CTSF expression” value (gene CTSF, hepatocytes) was 0.07, the “RNA-seq results: CTSK expression” value (gene CTSK, hepatocytes) was −0.13 and the “RNA-seq results: CYB5A expression” value (gene CYB5A, hepatocytes) was −0.01. The “RNA-seq results: CYB5R3 expression” value (gene CYB5R3, hepatocytes) was 0.05, the “RNA-seq results, CYP2B6 expression” value (gene CYP2B6, hepatocytes) was 0.55 and the “RNA-seq results: CYP2B6 expression” value (gene CYP2B6, hepatocytes) was −0.04. For the same compound, the “RNA-seq results, CYP2C19 expression” value (gene CYP2C19, hepatocytes) was 0.61, the “RNA-seq results: CYP2C19 expression” value (gene CYP2C19, hepatocytes) was −0.79 and the “RNA-seq results, CYP2D6 expression” value (gene CYP2D6, hepatocytes) was 0.31. For the same compound, the “RNA-seq results: CYP2D6 expression” value (gene CYP2D6, hepatocytes) was −0.01, the “RNA-seq results, CYP3A4 expression” value (gene CYP3A4, hepatocytes) was 3.59 and the “RNA-seq results: CYP3A4 expression” value (gene CYP3A4, hepatocytes) was 0.18. The “RNA-seq results, CYP7B1 expression” value (gene CYP7B1, hepatocytes) was 0.59, the “RNA-seq results: CYP7B1 expression” value (gene CYP7B1, hepatocytes) was −0.27 and the “RNA-seq results: CYP27A1 expression” value (gene CYP27A1, hepatocytes) was −0.03. The “RNA-seq results, CYP39A1 expression” value (gene CYP39A1, hepatocytes) was 1.11, the “RNA-seq results: CYP39A1 expression” value (gene CYP39A1, hepatocytes) was −0.23 and the “RNA-seq results: DAO expression” value (gene DAO, hepatocytes) was −0.06. The “RNA-seq results: DBT expression” value (gene DBT, hepatocytes) was −0.01, the “RNA-seq results: DCDC2 expression” value (gene DCDC2, hepatocytes) was −0.57 and the “RNA-seq results: DCXR expression” value (gene DCXR, hepatocytes) was 0.23. For the same compound, the “RNA-seq results: FABP1 expression” value (gene FABP1, hepatocytes) was −0.33, the “RNA-seq results: FADD expression” value (gene FADD, hepatocytes) was 0.17 and the “RNA-seq results: FAM111A expression” value (gene FAM111A, hepatocytes) was −0.14. The “RNA-seq results: FAM111B expression” value (gene FAM111B, hepatocytes) was 1.04, the “RNA-seq results: FAN1 expression” value (gene FAN1, hepatocytes) was 0.11 and the “RNA-seq results: FARS2 expression” value (gene FARS2, hepatocytes) was −0.7. The “RNA-seq results: FASLG expression” value (gene FASLG, hepatocytes) was −0.31, the “RNA-seq results: FGA expression” value (gene FGA, hepatocytes) was −0.24 and the “RNA-seq results: FGD1 expression” value (gene FGD1, hepatocytes) was 0.24. For the same compound, the “RNA-seq results: FGFR2 expression” value (gene FGFR2, hepatocytes) was −1.3, the “RNA-seq results: FIG4 expression” value (gene FIG4, hepatocytes) was −0.09 and the “RNA-seq results: FIS1 expression” value (gene FIS1, hepatocytes) was 0.19. For the same compound, the “RNA-seq results: FTCD expression” value (gene FTCD, hepatocytes) was −0.37, the “RNA-seq results: FTH1 expression” value (gene FTH1, hepatocytes) was 0.34 and the “RNA-seq results: FUCA1 expression” value (gene FUCA1, hepatocytes) was 0.04. The “RNA-seq results: FXN expression” value (gene FXN, hepatocytes) was −0.11, the “RNA-seq results: G6PC3 expression” value (gene G6PC3, hepatocytes) was 0.11 and the “RNA-seq results: G6PC expression” value (gene G6PC, hepatocytes) was −0.55. For the same compound, the “RNA-seq results: G6PD expression” value (gene G6PD, hepatocytes) was 0.55, the “RNA-seq results: GALK1 expression” value (gene GALK1, hepatocytes) was 0.19 and the “RNA-seq results: GALK2 expression” value (gene GALK2, hepatocytes) was 0.04. The “RNA-seq results: GALT expression” value (gene GALT, hepatocytes) was −0.13, the “RNA-seq results: GATA6 expression” value (gene GATA6, hepatocytes) was −0.12 and the “RNA-seq results: GATM expression” value (gene GATM, hepatocytes) was −0.13. The “RNA-seq results: GBA expression” value (gene GBA, hepatocytes) was 0.02, the “RNA-seq results: GBE1 expression” value (gene GBE1, hepatocytes) was −0.01 and the “RNA-seq results: GCH1 expression” value (gene GCH1, hepatocytes) was 0.04. The “RNA-seq results: GCKR expression” value (gene GCKR, hepatocytes) was −0.15, the “RNA-seq results: GCLC expression” value (gene GCLC, hepatocytes) was 0.18 and the “RNA-seq results: GOSH expression” value (gene GOSH, hepatocytes) was 0.18. The “RNA-seq results: RRM2B” value (gene RRM2B, hepatocytes) was 0.45, the “RNA-seq results: RSAD1” value (gene RSAD1, hepatocytes) was 0.22 and the “RNA-seq results: SAMHD1” value (gene SAMHD1, hepatocytes) was −0.22. For the same compound, the “RNA-seq results: SC5D” value (gene SC5D, hepatocytes) was 0.22, the “RNA-seq results: SCARB1” value (gene SCARB1, hepatocytes) was −0.40 and the “RNA-seq results: SCN9A” value (gene SCN9A, hepatocytes) was −0.97. The “RNA-seq results: SDCCAG8” value (gene SDCCAG8, hepatocytes) was 0.11, the “RNA-seq results: SEPN1” value (gene SEPN1, hepatocytes) was −0.18 and the “RNA-seq results: SERAC1” value (gene SERAC1, hepatocytes) was −0.05. For the same compound, the “RNA-seq results: SERPINA1” value (gene SERPINA1, hepatocytes) was 0.31, the “RNA-seq results: SERPING1” value (gene SERPING1, hepatocytes) was 0.27 and the “RNA-seq results: SERPINI1” value (gene SERPINI1, hepatocytes) was 0.67. The “RNA-seq results: SETBP1” value (gene SETBP1, hepatocytes) was −0.46, the “RNA-seq results: SFXN4” value (gene SFXN4, hepatocytes) was 0.01 and the “RNA-seq results: SLC10A1” value (gene SLC10A1, hepatocytes) was 0.97. The “RNA-seq results: SLC10A3” value (gene SLC10A3, hepatocytes) was −0.64, the “RNA-seq results: SLC10A5” value (gene SLC10A5, hepatocytes) was 1.23 and the “RNA-seq results: SLC10A7” value (gene SLC10A7, hepatocytes) was −0.12. For the same compound, the “RNA-seq results: SLC11A2” value (gene SLC11A2, hepatocytes) was −0.54, the “RNA-seq results: SLC19A1” value (gene SLC19A1, hepatocytes) was −0.37 and the “RNA-seq results: SLC19A2” value (gene SLC19A2, hepatocytes) was −0.01. For the same compound, the “RNA-seq results: SLC19A3” value (gene SLC19A3, hepatocytes) was 0.18, the “RNA-seq results: SLC22A1” value (gene SLC22A1, hepatocytes) was 0.16 and the “RNA-seq results: SLC22A5” value (gene SLC22A5, hepatocytes) was −0.46. For the same compound, the “RNA-seq results: SLC25A1” value (gene SLC25A1, hepatocytes) was −0.04, the “RNA-seq results: SLC25A10” value (gene SLC25A10, hepatocytes) was 0.24 and the “RNA-seq results: SLC25A12” value (gene SLC25A12, hepatocytes) was −0.27. The “RNA-seq results: SLC25A13” value (gene SLC25A13, hepatocytes) was 0.22, the “RNA-seq results: SLC25A15” value (gene SLC25A15, hepatocytes) was 1.61 and the “RNA-seq results: SLC25A19” value (gene SLC25A19, hepatocytes) was 0.07. For the same compound, the “RNA-seq results: SLC25A20” value (gene SLC25A20, hepatocytes) was 0.62, the “RNA-seq results: SLC25A29” value (gene SLC25A29, hepatocytes) was −0.40 and the “RNA-seq results: SLC25A32” value (gene SLC25A32, hepatocytes) was −0.06.
`C=CCNC1=C2C[C@@H](C)C[C@H](OC)[C@H](O)[C@@H](C)/C=C(\C)[C@H](OC(N)=O)[C@@H](OC)/C=C\C=C(/C)C(=O)NC(=CC1=O)C2=O` [Compound 17-AAG] was tested, and the “Number (#) of genes having significantly changed expression” value was 1558.
With `Cc1cc(C)c2c(c1)[C@@H](N(Cc1cc(C(F)(F)F)cc(C(F)(F)F)c1)c1nnn(C)n1)CCCN2C[C@H]1CC[C@H](C(=O)O)CC1` [Evacetrapib] the “significant changes in gene expression” value (RNA-seq of Table 36, FPKM≥0.5, log 2(fold-change)≥1, q-value≤0.05) was “not observed to cause any significant changes in gene expression” and the “significant modulation of expression of any of the genes analyzed” value (RNA-seq, p≤0.05, hepatocytes) was “not observed to significantly modulate expression”.
